Measured values reported in patent US9115367B2, “Stomata-increasing agent, polypeptide, method for increasing number and/or density of stomata in plant, and method for increasing yield of plant” (KYOTO UNIVERSITY, priority 2009, dated 2015).
Where no end group is shown, it is not given here.

What was measured:
[1] = system: Arabidopsis thaliana {Lti6b-GFP line}; assay: Administration of purified recombinant stomagen to germinated seedlings (Example 4); assay type: in vivo
Description: Seeds of Arabidopsis thaliana {Lti6b-GFP line} were maintained in a B5 sterilized medium {manufactured by NIHON PHARMACEUTICAL CO., LTD, catalogue number: 399-00621} for germination. To the Lti6b-GFP line at 2 days after germination was administered the purified recombinant stomagen obtained in Example 2, so as to have a concentration of 2 μM. Thereafter, the Lti6b-GFP line was grown for 3 days at 22° C. The abaxial epidermis of the cotyledons was observed under a confocal microscope. The same operation was carried out as described above, using as a control an Lti6b-GFP line to which stomagen was not administered. The abaxial epidermis of the cotyledons was observed. A confocal microscopic image of abaxial epidermis of the cotyledon of the Lti6b-GFP-expressing line to which the purified recombinant stomagen was not administered in Example 4 is shown in FIG. 26 (a) and a confocal microscopic image of abaxial epidermis of the cotyledon of the Lti6b-GFP-expressing line to which the purified recombinant stomagen (2 μM) was administered in Example 4 is shown in FIG. 26 (b). In the figures, a scale bar represents 50 μm.

spch mutant = assay: Administration of purified recombinant stomagen to spch mutant (Test Example 9); assay type: in vivo, Arabidopsis thaliana; conditions: 2 μM administered to spch mutant at 2 days after germination, grown 3 days; abaxial epidermis of cotyledon
Description: The seeds of the spch mutant or the seeds of Arabidopsis thaliana Col-0 line (stock number: CS60000) {wild-type strain} were maintained in a B5 sterilized medium for germination. To the spch mutant or the wild-type strain at 2 days after germination was administered the purified recombinant stomagen obtained in Example 2, so as to have a concentration of 2 μM. Thereafter, the spch mutant or the wild-type strain was grown at 22° C. for 3 days. The abaxial epidermis of the cotyledon was observed under a confocal microscope {manufactured by Zeiss, trade name: LSM510 META microscope}. The abaxial epidermis of the cotyledons was observed by carrying out the same operation was carried out as described above with the use of a spch mutant line to which stomagen was not administered as a control. A confocal microscopic image of abaxial epidermis of the cotyledon of the spch mutant to which purified recombinant stomagen was not administered in Test Example 9 is shown in FIG. 28 (a), a confocal microscopic image of abaxial epidermis of the cotyledon of the spch mutant to which purified recombinant stomagen (2 μM) was administered in Test Example 9 is shown in FIG. 28 (b), and a confocal microscopic image of abaxial epidermis of the cotyledon of the wild-type strain to which purified recombinant stomagen (2 μM) was administered in Test Example 9 is shown in FIG. 28 (c).

soybean (Kariyutaka) = assay: Addition of synthetic stomagen to soybean shoot apex (Example 8); assay type: in vivo; conditions: 1 μM, 10 μM or 100 μM added to shoot apex at second leaf stage, grown for a week
Description: The seeds of soybean (Kariyutaka) were seeded to a pot containing potting compost, germinated and then grown until the second leaf stage. Then, the synthetic stomagen obtained in Example 5 was added to the shoot apex, so as to have a concentration of 1 μM, 10 μM or 100 μM. Thereafter, the resulting plant was grown for a week and observed under a differential interference microscope {manufactured by Zeiss, trade name: Axioskop plus microscope}, to determine the number of stomata in a square area of 0.22 mm^2. Then, stomatal density was calculated. Here, statistical analysis was conducted using R statistical analysis software. […] In the figure, an open triangle, an open square and an open circle each show a different plant.

[2] = system: Arabidopsis thaliana Col-0 line; assay: Heat and lyophilization treatment of stomagen, then stomatal density test (Test Example 16); assay type: in vivo; conditions: 60° C. for 5 minutes, 90° C. for 5 minutes or lyophilized; administered at 3 μM, cotyledon
Description: The chemically synthesized stomagen obtained in Example 5 was incubated at 60° C. for 5 minutes (sample number 3) or at 90° C. for 5 minutes (sample number 4). In addition, the chemically synthesized stomagen obtained in Example 5 was lyophilized (sample number 5).
The seeds of Arabidopsis thaliana Col-0 line (stock number: CS60000) were maintained and germinated in a B5 sterilized medium. To the Arabidopsis thaliana Col-0 line (stock number: CS60000) at 2 days after germination was administered the untreated stomagen (sample number 2), the stomagen incubated at 60° C. for 5 minutes (sample number 3), the stomagen incubated at 90° C. for 5 minutes (sample number 4), or the lyophilized stomagen (sample number 5), so as to have a concentration of 3 μM.
Thereafter, the Arabidopsis thaliana Col-0 line (stock number: CS60000) was grown at 22° C. for 3 days. Next, the cotyledon was collected, and the surface of the cotyledon was observed under a confocal microscope {manufactured by Zeiss, trade name: LSM510 META microscope}, to determine the number of stomata in a square area of 0.22 mm^2. Then, stomatal density was calculated. […] Stomatal density was calculated by carrying out the same operation as described above with the use of Arabidopsis thaliana Col-0 line (stock number: CS60000) to which stomagen was not administered as a control (sample number 1). […]

[3] = system: Arabidopsis thaliana {Lti6b-GFP line}; assay: Administration of synthetic stomagen to germinated seedlings (Example 6); assay type: in vivo
Description: The seeds of Arabidopsis thaliana {Lti6b-GFP line} were maintained in a B5 sterilized medium for germination. To the Lti6b-GFP line at 2 days after germination was administered the synthetic stomagen obtained in Example 5, so as to have a concentration of 300 nM. Thereafter, the Lti6b-GFP line was grown for 3 days at 22° C. Next, the cotyledon was collected. The surface was observed under a confocal microscope {manufactured by Zeiss, trade name: LSM510 META microscope}, to determine the number of stomata in a square area of 0.22 mm^2. Then, stomatal density was calculated. Here, statistical analysis was conducted by using R statistical analysis software. In addition, stomatal density was calculated by carrying out the same operation as described above with the use of an Lti6b-GFP line to which stomagen was not administered as a control. The result of examining the relationship between the amount of synthesized stomagen and stomatal density in Example 6 is shown in FIG. 27.

[4] = system: rice {strain “Nipponbare”}; assay: Administration of synthetic stomagen to rice seeds (Test Example 14); assay type: in vivo; conditions: 200 μL of 80 μM stomagen added to 5 mL water at seeding; abaxial epidermis of second leaf at 32 days after seeding; vs not administered
Description: The seeds of rice {strain “Nipponbare”} were seeded to a container {50-mL volume, manufactured by greiner} with 5 mL of desalted water, and thereafter 200 μL of 80 μM stomagen (the synthetic stomagen obtained in Example 5) was added thereto. Then, the seeds were maintained at 22° C. for 8 days. Thereafter, the resulting plant was grown at 22° C. in a B5 sterilized medium. The second leaves of rice at 32 days after seeding were collected. Then, the second leaves were fixed and made transparent, and then stomata were stained by carrying out the same operation as in Test Example 1. Thereafter, the abaxial epidermis of the second leaves was observed under a differential interference microscope {manufactured by Zeiss, trade name: Axioskop plus microscope}. The abaxial epidermis of the second leaves of the rice at 32 days after seeding was observed by carrying out the same procedure as in the above with the use of a rice to which stomagen was not administered as a control. A differential interference image of abaxial epidermis of the second leaf of the rice to which synthesized stomagen was administered in Test Example 14 is shown in FIG. 39 (a) and a differential interference image of abaxial epidermis of the second leaf of the rice to which synthesized stomagen was not administered in Test Example 14 is shown in FIG. 39 (b). In the figures, a framed part represents a stoma. […]

[5] = 2 μM at 2 days after germination, grown 3 days at 22° C., abaxial epidermis of cotyledon, vs not administered

Which results are given for “purified recombinant stomagen: stomagen expressed in tobacco-cultured BY-2 cells and purified from culture supernatant by reversed-phase HPLC (IGSTAPTCTYNECRGCRYKCRAEQVPVEGNDPINSAYHYRCVCHR; Stomagen; UniProt Q9SV72 58-102, looked up)”?
number of stomata [1, 5]: increased; stomatal density [1, 5]: increased; stomatal density, concentration dependence ([1]; recombinant stomagen expressed in BY-2 cells): concentration-dependently increase

Which stomata (spch mutant) does the source give for “stomagen: polypeptide comprising the amino acid sequence shown in SEQ ID NO: 6; 45-amino-acid peptide having six cysteine residues (IGSTAPTCTYNECRGCRYKCRAEQVPVEGNDPINSAYHYRCVCHR; listed as Arabidopsis thaliana)” here?
The stomata was “do not increase”.

What about the “relationship between stomagen concentration and stomatal density” value (soybean (Kariyutaka)) of the same substance?
Its value is “positive correlation”.

And the “stability to heat and drying (stomatal density after treatment)” value [2]?
The value was “stable to heat and drying”.

Which stomatal density ([3]; 300 nM at 2 days after germination, grown 3 days at 22° C., abaxial epidermis of cotyledon, vs not administered) does the source give for “synthetic stomagen: chemically synthesized polypeptide (45 amino acids) comprising 58th to 102nd amino acid residues of SEQ ID NO: 1, refolded by dialysis (IGSTAPTCTYNECRGCRYKCRAEQVPVEGNDPINSAYHYRCVCHR; also: refolded by dialysis, disulfide pairing not given here; listed as Arabidopsis thaliana)” here?
The stomatal density was “increases”.

What about the “stomatal density, concentration dependence” value ([3]; chemically synthesized stomagen) of the same substance?
Its value is “concentration-dependently increase”.

And the number of stomata [4]?
The number of stomata was “increase”.

What about the stomatal density [4] of the same substance?
The stomatal density was “increase”.
